No end group written: not given here.
Key:
[1] = tested on: human pancreatic cancer cell lines; test: S2-BH3 apoptosis in human pancreatic cancer cell lines; format: cell-based; settings: up to 10 μM
Protocol: (§1) Tumor Cells are seeded at a density of 0.2 to 0.5×10^6 cells per mL in 12-well plates and incubated at 37° C. for at least 24 hours (murine cancer cells) or 48 hours (Human cancer cells). After incubation, S2-fusion protein is added to the cell culture medium. The cells are then incubated for 18 hours (active caspase 3) or 24 hours (TUNEL) at 37° C. in humidified 5% CO2. Apoptosis is detected by FACS analysis after staining cells for active caspase-3 (Cell Signaling, Boston, Mass.) or with the APO-BRDU kit (Phenix Flow Systems, San Diego, Calif.). Briefly, cells are washed with PBS, treated with trypsin-EDTA to remove adhesion molecules, and washed again. After centrifugation at 1,200 rpm for 10 min, cells are fixed with 1% paraformaldehyde and washed with PBS. After centrifugation at 1,800 rpm for 10 min, cells are fixed with 90% methanol at −20° C. and washed with PBS. Each pellet is resuspended in 1:100 anti-active caspase-3 antibody (1 μg/ml caspase 3, PBS with 5% FBS) or Br-duTP with TdT, and incubated overnight at 4° C. […] Cell fluorescence signals is determined using a FACScan flow cytometer (BD Biosciences) and analyzed with CellQuest software (BD Biosciences) to measure the percentage of apoptotic cells. […]

[2] = tested on: murine pancreatic cancer cell lines; test: S2-BH3 apoptosis in murine pancreatic cancer cell lines; format: cell-based; settings: up to 10 μM
Protocol: as §1

[3] = tested on: human pancreas cancer cells; test: apoptosis screen of TAT-CTMP fusion peptides, human cells; format: cell-based
Protocol: as §1

Akt = test: Western blot of phospho-Akt (Ser-473) in cell lysates; format: cell-based, human; settings: Panc-1; one hour after treatment; wortmannin 1 μM, TAT-CTMP 10 μM
Protocol: In addition we looked at down stream effector GSK-3β using antibodies directed at GSK-3β and phospho GSK-3β.
(§2) Cells were subsequently harvested and % active caspase-3 was assessed by flow cytometry. Each experimental group represents an n=3. […] This experiment was repeated twice with multiple murine and human lines with similar results. (B and C) Antitumor effects of CTMP4 are the result of inhibition of Akt3 and its downstream effectors. […] Samples were treated for 1 hour prior to preparation of cell lysates. Immunoblots were subsequently prepared and stained with (B) anti-total AKT and phospho-AKT (Ser^473) and (C) anti-total GSK-3β and phospho GSK-3β.

[4] = tested on: murine pancreas cancer cells; test: apoptosis screen of TAT-CTMP fusion peptides, murine cells; format: cell-based
Protocol: as §1

AsPC-1 = test: Tat-CTMP with gemcitabine, % active caspase-3 by flow cytometry; format: cell-based, human; settings: in the presence of gemcitabine (30 nM); 24 hours
Protocol: as §2, with “In these experiments, a combination of gemcitabine, a commonly-used chemotherapeutic drug for pancreas cancer and Tat-CTMP were tested in our in vitro model. In this study, two human pancreas adenocarcinoma cell lines (Panc-1 and AsPC-1) were treated with TAT-CTMP and TAT-CTMP in the presence and absence of gemcitabine (30 nM). […] Cells” for “Cells”, “([…])” for “(Ser^473)”

pancreas cancer cells = test: TAT-CTMP with radiation, apoptosis; format: cell-based; settings: cotreatment with radiation
Text: CTMP binds to the C-terminal regulatory domain of Akt, inhibiting phosphorylation of Ser^473 and activation of Akt, and thereby promotes apoptosis. CTMP is highly conserved between mouse and human (85% of the residues are identical or conservative replacements) and has two functional domains, a highly structured N-terminal domain and a C-terminal thioesterase domain. Within the N-terminal domain there are four peptides that have structural elements that meet the criteria described by Maira et al (Science 294: 374-380, 2001) as mediating the interaction with Akt. In these experiments, we synthesized TAT-fusion peptides of each of these four domains and screened them for their ability to induce apoptosis in pancreas cancer cells. […] In FIG. 4, the left panel (A), presents a helical wheel diagram (Schiffer, M. and Edmundson, A. B., Biophys. J. 7, 121-135, 1967) of the active domain of CTMP. […] Furthermore, cotreatment with TAT-CTMP4 and radiation results in increased apoptosis (FIG. 4, right panel).

[5] = tested on: established murine pancreas cancers; test: systemic (intraperitoneal) S2-BH3 in mice with established pancreas cancers; settings: seven intraperitoneal doses over 14 days
Protocol: The intradermal location is used to facilitate accurate tumor measurements. Tumor diameter is measured with calipers every two days in two dimensions and the data are recorded. Mice are euthanized when the tumors reach 2 cm or ulcerate. In the subcutaneous model, 100,000 Panc-02 cells are utilized.
In these experiments, we have completed the first in vivo administration of our novel therapeutic.

| Molecule | apoptosis [1] | apoptosis [2] | apoptosis [3] | active phospho-AKT (Ser-473) (Akt) | apoptosis [4] | apoptosis (% active caspase-3) (AsPC-1) | radiation-induced apoptosis (pancreas cancer cells) | tumor growth rate ([5]; 400 μg) | Median Survival ([5]; n = 12 mice per group) [days] |
| --- | --- | --- | --- | --- | --- | --- | --- | --- | --- |
| COc1ccc(C)cc1NC(=O)OC1C[C@H]2CCC[C@@H](C1)N2CCCCCCN (some centres unmarked) [SV119] | low, concentration-dependent level of apoptosis | low, concentration-dependent level of apoptosis | – | – | – | – | – | – | – |
| TAT-CTMP: TAT-fusion peptide of the active N-terminal domain peptide CTMP4 of CTMP (YGRKKRRQRRRLDPKLMKEEQMSQAQLFTRSFDDGL) | – | – | induced appreciable apoptosis | decreased active phospho-AKT | induced appreciable apoptosis | additive increase in apoptosis | sensitizes pancreas cancer cells to radiation-induced apoptosis in a dose dependent fashion | – | – |
| S2-BH3-in: control peptide: SW141 sigma-2 amino acid coupled to mutated inactive BH3 sequence EIWIAQEARRIGAEFNAYYAR (SEQ ID NO: 3) (also: SW141 sigma-2 ligand conjugated; listed as Homo sapiens) | no appreciable apoptosis | no appreciable apoptosis | – | – | – | – | – | not | 35 |
